pEC50: −log10 of the molar value.
Legend:
[1] = test system: recombinant NL4-3 virus (nef section replaced with Renilla luciferase gene) in MT-2 cells; assay: HIV cell culture assay (antiviral activity, luciferase readout); type: cell-based; conditions: serial dilutions of compound
Method in brief: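 EC50 was derived by median-effect curve fitting of luciferase activity. The signal comes from MT-2 cells infected for 4–5 days with 293T-produced NL4-3 reporter virus, nef partly replaced by Renilla luciferase, in the presence of serially diluted compound.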

[2] = Compound cytotoxicity, XTT-based colorimetric assay; type: cell-based; conditions: human, uninfected MT2 cells, day 4, XTT
Method in brief: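 Run under the antiviral-assay protocol but without virus. Viability was read on day 4 and CC50 values were derived from the readout.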

[3] = Renilla, NL43, MT-2 cells infected for 4-5 days with recombinant NL4-3 Renilla luciferase virus
[4] = MT-2 cells infected for 4-5 days with recombinant NL4-3 Renilla luciferase virus

Structure (SMILES) | pEC50 [1, 3] | CC50 at 4 day [2] [nM] | pEC50 [1, 4]
Cc1cc(C)nc(-c2ccc3c(=O)n(-c4ccc(Cl)c5c(NS(C)(=O)=O)nn(CC(F)F)c45)c([C@H](Cc4cc(F)cc(F)c4)NC(=O)Cn4nc(C(F)F)c5c4C(F)(F)[C@@H]4C[C@H]54)nc3c2)n1 (atropisomer, axis not shown; (aR)) [Example 128, N-((S)-1-(3-(4-chloro-1-(2,2-difluoroethyl)-3-(methylsulfonamido)-1H-indazol-7-yl)-7-(4,6-dimethylpyrimidin-2-yl)-4-oxo-3,4-dihydroquinazolin-2-yl)-2-(3,5-difluorophenyl)ethyl)-2-((3bS,4aR)-3-(difluoromethyl)-5,5-difluoro-3b,4,4a,5-tetrahydro-1H-cyclopropa[3,4]cyclopenta[1,2-c]pyrazol-1-yl)acetamide] | 10.16 | > 500 | 
Cc1cc(C)nc(-c2ccc3c(=O)n(-c4ccc(Cl)c5c(NS(=O)(=O)C6CC6)nn(CC(F)F)c45)c([C@H](Cc4cc(F)cc(F)c4)NC(=O)Cn4nc(C(F)F)c5c4C(F)(F)[C@@H]4C[C@H]54)nc3c2)n1 (atropisomer, axis not shown; (aR)) [Example 129, N-((S)-1-(3-(4-chloro-3-(cyclopropanesulfonamido)-1-(2,2-difluoroethyl)-1H-indazol-7-yl)-7-(4,6-dimethylpyrimidin-2-yl)-4-oxo-3,4-dihydroquinazolin-2-yl)-2-(3,5-difluorophenyl)ethyl)-2-((3bS,4aR)-3-(difluoromethyl)-5,5-difluoro-3b,4,4a,5-tetrahydro-1H-cyclopropa[3,4]cyclopenta[1,2-c]pyrazol-1-yl)acetamide] | 10.02 | > 500 | 
Cc1ncc(-c2ccc3c(=O)n(-c4ccc(Cl)c5c(NS(C)(=O)=O)nn(C)c45)c([C@H](Cc4cc(F)cc(F)c4)NC(=O)Cn4nc(C(F)F)c5c4C(F)(F)[C@@H]4C[C@H]54)nc3c2)cn1 (atropisomer, axis not shown; (aR)) [Example 130, N-((S)-1-(3-(4-chloro-1-methyl-3-(methylsulfonamido)-1H-indazol-7-yl)-7-(2-methylpyrimidin-5-yl)-4-oxo-3,4-dihydroquinazolin-2-yl)-2-(3,5-difluorophenyl)ethyl)-2-((3bS,4aR)-3-(difluoromethyl)-5,5-difluoro-3b,4,4a,5-tetrahydro-1H-cyclopropa[3,4]cyclopenta[1,2-c]pyrazol-1-yl)acetamide] | 10.52 | > 500 | 
COc1cc(C)nc(-c2ccc3c(=O)n(-c4ccc(Cl)c5c(NS(C)(=O)=O)nn(C)c45)c([C@H](Cc4cc(F)cc(F)c4)NC(=O)Cn4nc(C(F)F)c5c4C(F)(F)[C@@H]4C[C@H]54)nc3c2)n1 (atropisomer, axis not shown; (aR)) [Example 131, N-((S)-1-(3-(4-chloro-1-methyl-3-(methylsulfonamido)-1H-indazol-7-yl)-7-(4-methoxy-6-methylpyrimidin-2-yl)-4-oxo-3,4-dihydroquinazolin-2-yl)-2-(3,5-difluorophenyl)ethyl)-2-((3bS,4aR)-3-(difluoromethyl)-5,5-difluoro-3b,4,4a,5-tetrahydro-1H-cyclopropa[3,4]cyclopenta[1,2-c]pyrazol-1-yl)acetamide] | 9.96 | > 500 | 
Cn1nc(NS(C)(=O)=O)c2c(Cl)ccc(-n3c(C(Cc4cc(F)cc(F)c4)NC(=O)Cn4nc(C(F)F)c5c4C(F)(F)[C@@H]4C[C@H]54)nc4cc(-c5ccccc5F)ccc4c3=O)c21 (single isomer, unassigned) [Example 1] | 6.68 | > 1000 | 
Cn1nc(NS(C)(=O)=O)c2c(Cl)ccc(-n3c([C@H](Cc4cc(F)cc(F)c4)NC(=O)Cn4nc(C(F)F)c5c4C(F)(F)[C@@H]4C[C@H]54)nc4cc(-c5ccccc5F)ccc4c3=O)c21 (single isomer, unassigned) [Example 2] | 9.28 | > 1000 | 
Cn1nc(NS(C)(=O)=O)c2c(Cl)ccc(-n3c([C@H](Cc4cc(F)cc(F)c4)NC(=O)Cn4ccc(C5CC5)n4)nc4cc(-c5ccccc5F)ccc4c3=O)c21 (single isomer, unassigned) [Example 3] |  | > 1000 | 7.20
CC(C(=O)N[C@@H](Cc1cc(F)cc(F)c1)c1nc2cc(-c3ccccc3F)ccc2c(=O)n1-c1ccc(Cl)c2c(NS(=O)(=O)C3CC3)nn(CC(F)F)c12)n1ccc(C2CC2)n1 (single isomer, unassigned) [Example 133] |  | > 500 | 8.80
Cc1c(-c2ccc3c(=O)n(-c4ccc(Cl)c5c(NS(C)(=O)=O)nn(C)c45)c([C@H](Cc4cc(F)cc(F)c4)NC(=O)Cn4nc(C(F)F)c5c4C(F)(F)[C@@H]4CC54)nc3c2)cc(F)c2c1CCCO2 (stereo in doubt) [Example 53, N-((S)-1-(3-(4-chloro-1-methyl-3-(methylsulfonamido)-1H-indazol-7-yl)-7-(8-fluoro-5-methylchroman-6-yl)-4-oxo-3,4-dihydroquinazolin-2-yl)-2-(3,5-difluorophenyl)ethyl)-2-((3bS,4aR)-3-(difluoromethyl)-5,5-difluoro-3b,4,4a,5-tetrahydro-1H-cyclopropa[3,4]cyclopenta[1,2-c]pyrazol-1-yl)acetamide] | 8.68 | > 1000 | 
CC(C)c1ccc(-n2c([C@H](Cc3cc(F)cc(F)c3)NC(=O)Cn3nc(C(F)F)c4c3C(F)(F)[C@@H]3C[C@H]43)nc3cc(-c4nnn[nH]4)ccc3c2=O)cn1 [Example 7, 2-((3bS,4aR)-3-(difluoromethyl)-5,5-difluoro-3b,4,4a,5-tetrahydro-1H-cyclopropa[3,4]cyclopenta[1,2-c]pyrazol-1-yl)-N-((S)-2-(3,5-difluorophenyl)-1-(3-(6-isopropylpyridin-3-yl)-4-oxo-7-(1H-tetrazol-5-yl)-3,4-dihydroquinazolin-2-yl)ethyl)acetamide] | 5.38 | > 1000 | 
O=C(Cn1ccc(C2CC2)n1)N[C@@H](Cc1cc(F)cc(F)c1)c1nc2cc(-c3ccc(F)cc3F)ccc2c(=O)n1-c1ccc(S(=O)(=O)N2CCOCC2)cc1 [Example 12, (S)-2-(3-cyclopropyl-1H-pyrazol-1-yl)-N-(2-(3,5-difluorophenyl)-1-(7-(2,4-difluorophenyl)-3-(4-(morpholinosulfonyl)phenyl)-4-oxo-3,4-dihydroquinazolin-2-yl)ethyl)acetamide] | 8.08 | > 1000 | 
Cc1cc(Cl)ccc1-c1ccc2c(=O)n(-c3ccc(S(=O)(=O)N4CCOCC4)cc3)c([C@H](Cc3cc(F)cc(F)c3)NC(=O)Cn3nc(C(F)F)c4c3C(F)(F)[C@@H]3C[C@H]43)nc2c1 [Example 15, N-((S)-1-(7-(4-chloro-2-methylphenyl)-3-(4-(morpholinosulfonyl)phenyl)-4-oxo-3,4-dihydroquinazolin-2-yl)-2-(3,5-difluorophenyl)ethyl)-2-((3bS,4aR)-3-(difluoromethyl)-5,5-difluoro-3b,4,4a,5-tetrahydro-1H-cyclopropa[3,4]cyclopenta[1,2-c]pyrazol-1-yl)acetamide] | 7.37 | > 1000 | 
O=C(Cn1ccc(C2CC2)n1)N[C@@H](Cc1cc(F)cc(F)c1)c1nc2cc(-c3cc(F)ccc3F)ccc2c(=O)n1-c1ccc(S(=O)(=O)N2CCOCC2)cc1 [Example 19, (S)-2-(3-cyclopropyl-1H-pyrazol-1-yl)-N-(2-(3,5-difluorophenyl)-1-(7-(2,5-difluorophenyl)-3-(4-(morpholinosulfonyl)phenyl)-4-oxo-3,4-dihydroquinazolin-2-yl)ethyl)acetamide] | 8.05 | > 1000 | 
O=C(Cn1ccc(C2CC2)n1)N[C@@H](Cc1cc(F)cc(F)c1)c1nc2cc(-c3cccnc3)ccc2c(=O)n1-c1ccc(S(=O)(=O)N2CCOCC2)cc1 [Example 20, (S)-2-(3-cyclopropyl-1H-pyrazol-1-yl)-N-(2-(3,5-difluorophenyl)-1-(3-(4-(morpholinosulfonyl)phenyl)-4-oxo-7-(pyridin-3-yl)-3,4-dihydroquinazolin-2-yl)ethyl)acetamide] | 8.43 | > 1000 | 
O=C(Cn1nc(C(F)F)c2c1C(F)(F)[C@@H]1C[C@H]21)N[C@@H](Cc1cc(F)cc(F)c1)c1nc2cc(-c3ccc(F)cc3F)ccc2c(=O)n1-c1ccc(S(=O)(=O)N2CCOCC2)cc1 [Example 22, 2-((3bS,4aR)-3-(difluoromethyl)-5,5-difluoro-3b,4,4a,5-tetrahydro-1H-cyclopropa[3,4]cyclopenta[1,2-c]pyrazol-1-yl)-N-((S)-2-(3,5-difluorophenyl)-1-(7-(2,4-difluorophenyl)-3-(4-(morpholinosulfonyl)phenyl)-4-oxo-3,4-dihydroquinazolin-2-yl)ethyl)acetamide] | 8.10 | > 1000 | 
O=C(Cn1nc(C(F)F)c2c1C(F)(F)[C@@H]1C[C@H]21)N[C@@H](Cc1cc(F)cc(F)c1)c1nc2cc(-c3cccnc3)ccc2c(=O)n1-c1ccc(S(=O)(=O)N2CCOCC2)cc1 [Example 24, 2-((3bS,4aR)-3-(difluoromethyl)-5,5-difluoro-3b,4,4a,5-tetrahydro-1H-cyclopropa[3,4]cyclopenta[1,2-c]pyrazol-1-yl)-N-((S)-2-(3,5-difluorophenyl)-1-(3-(4-(morpholinosulfonyl)phenyl)-4-oxo-7-(pyridin-3-yl)-3,4-dihydroquinazolin-2-yl)ethyl)acetamide] | 8.37 | > 1000 | 
O=C(Cn1nc(C(F)F)c2c1C(F)(F)[C@H]1C[C@@H]21)N[C@@H](Cc1cc(F)cc(F)c1)c1nc2cc(-c3ncccn3)ccc2c(=O)n1-c1ccc(S(=O)(=O)N2CCOCC2)cc1 [Example 27, 2-((3bR,4aS)-3-(difluoromethyl)-5,5-difluoro-3b,4,4a,5-tetrahydro-1H-cyclopropa[3,4]cyclopenta[1,2-c]pyrazol-1-yl)-N-((S)-2-(3,5-difluorophenyl)-1-(3-(4-(morpholinosulfonyl)phenyl)-4-oxo-7-(pyrimidin-2-yl)-3,4-dihydroquinazolin-2-yl)ethyl)acetamide] | 8.24 | > 1000 | 

Reference: US11505543B2, “4-oxo-3,4-dihydroquinazoline compounds as inhibitors of human immunodeficiency virus replication” (VIIV HEALTHCARE UK (NO.5) LIMITED, priority 2018, dated 2022)
